Measurements reported in PubChem BioAssay (NCI).
Values joined by “and” are separate entries in the source; they are usually repeats but may differ in a detail not shown here. Identical values can stand only once.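 Results reflect a 48-hour exposure of cells in 96-well plates to compound at five concentrations. GI50 marks 50% less growth. TGI denotes the concentration required for complete inhibition of growth.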

Tests used:
Assay in all cases: NCI-60 cell line screen, 48 h
786-0 renal = tested on: 786-0 renal
HCT-15 colon = tested on: HCT-15 colon
UACC-257 melanoma = tested on: UACC-257 melanoma
SK-MEL-2 melanoma = tested on: SK-MEL-2 melanoma
MDA-N = tested on: MDA-N
NCI-H23 lung = tested on: NCI-H23 lung
HCC-2998 colon = tested on: HCC-2998 colon
COLO 205 colon = tested on: COLO 205 colon
MDA-MB-231 breast = tested on: MDA-MB-231 breast
M14 melanoma = tested on: M14 melanoma
RPMI-8226 leukemia = tested on: RPMI-8226 leukemia

Structure (SMILES)	TGI (786-0 renal) [µM]	TGI (HCT-15 colon)	TGI (UACC-257 melanoma)	TGI (SK-MEL-2 melanoma)	TGI (MDA-N) [µM]	TGI (NCI-H23 lung)	TGI (HCC-2998 colon) [µM]	TGI (COLO 205 colon)	TGI (MDA-MB-231 breast) [µM]	TGI (M14 melanoma) [µM]	TGI (RPMI-8226 leukemia)	GI50 (HCT-15 colon) [µM]	GI50 (UACC-257 melanoma) [µM]	GI50 (SK-MEL-2 melanoma) [µM]	GI50 (RPMI-8226 leukemia) [µM]	GI50 (NCI-H23 lung) [µM]	GI50 (COLO 205 colon) [µM]
O=C(/C=C/c1ccc2c(c1)OCO2)c1ccc(O)cc1	3.01	27.5 µM	28.8 µM	32.7 µM	22.9	30 µM	32.1	31.3 µM	31.5	32.2	–	–	–	–	–	–	–
CCOC(=O)c1c(CN2CCCC2)n(-c2ccccc2)c2cc(Br)c(O)cc12	31	40.5 µM	32.8 µM	33.3 µM	32.2	42.8 µM	–	22.4 µM	39.7	29	39.5 µM	–	–	–	–	–	–
O=c1[nH]c(=S)[nH]c2c1C(c1ccc([N+](=O)[O-])cc1)c1c([nH]c(=S)[nH]c1=O)O2	> 100	> 100 µM	> 100 µM	> 100 µM	> 100	> 100 µM	–	> 100 µM	> 100	> 100	> 100 µM	–	–	–	–	–	–
c1ccc2c3[nH]c(c2c1)=Nc1ccc(cc1)-c1nc2cc(ccc2o1)N=c1[nH]c(c2ccccc12)=Nc1ccc2nc(oc2c1)-c1ccc(cc1)N=3	> 100	> 100 µM	> 100 µM	–	> 100	> 100 µM	> 100	> 100 µM	–	> 100	–	–	–	–	–	–	–
COc1ccc(-c2[nH]c3c4c(nc5c(c24)C(=O)CC(C)(C)C5)CC(C)(C)C3)cc1	> 100	> 100 µM	> 100 µM	> 100 µM	> 100	> 100 µM	> 100	> 100 µM	> 100	> 100	–	–	–	–	–	–	–
N[C@@H](CCC(=O)NCP(=O)(O)O)C(=O)O	> 100	> 100 µM	> 100 µM	> 100 µM	> 100	> 100 µM	> 100	> 100 µM	> 100	–	> 100 µM	–	–	–	–	–	–
O=C1C=C[C@@H](COC2OC(CO)C(O)C(O)C2O)O1 (stereo partly specified)	–	21.5 µM and 16.4 µM	22.8 µM and 27.7 µM	36.3 µM and 32.8 µM	–	19.2 µM and 29.7 µM	> 100	14.4 µM and 19.5 µM	–	–	–	3.22	10.2	15.3	2.45	5.12	3.44
CC(=O)N(C(=O)CC(=O)N1N=C(c2ccccc2)C(N=Nc2ccccc2[N+](=O)[O-])C1=O)c1ccc(Cl)cc1 (stereo unspecified)	> 10	> 10 µM	> 10 µM	> 10 µM	> 10	> 10 µM	> 10	> 10 µM	> 10	–	> 10 µM	–	–	–	–	–	–
Cc1cc(C)nc(NS(=O)(=O)c2ccc(NC(=O)c3ccc4nc5ccccc5c(Nc5ccc(S(N)(=O)=O)cc5)c4c3)cc2)n1	> 100	> 100 µM	> 100 µM	> 100 µM	–	> 100 µM	> 100	> 100 µM	> 100	> 100	> 100 µM	–	–	–	–	–	–
S=C(N/N=C(/c1ccccc1)c1ccccn1)N(Cc1ccccn1)Cc1ccccn1	2.04	–	2.42 µM	3.04 µM	7.62	1.57 µM	–	2.02 µM	2.72	2.97	3.38 µM	–	–	–	–	–	–
COC(=O)c1c(C)nc2c1cc(O)c1[nH]c(C)c(C)nc12	> 100	> 100 µM	> 100 µM	> 100 µM	> 100	> 100 µM	> 100	> 100 µM	–	> 100	> 100 µM	–	–	–	–	–	–
Nc1ncnc2c1[nH]c(=O)n2-c1ccccc1	> 100	> 100 µM	> 100 µM	> 100 µM	> 100	> 100 µM	> 100	> 100 µM	–	> 100	> 100 µM	–	–	–	–	–	–
COc1cccc(Nc2nc(-c3cccs3)nc3cc(OC)c(OC)cc23)c1	46	49.3 µM	> 100 µM	> 100 µM	–	89.7 µM	–	62.3 µM	53.8	82.2	27.3 µM	–	–	–	–	–	–
Nc1c(-c2ccc(Cl)c(Cl)c2)c2ccc([N+](=O)[O-])cc2c(=O)n1-c1nc2ccccc2s1	19.6	> 47 µM	> 100 µM	14.4 µM	> 36	3.13 µM	92.6	2.89 µM	–	> 36.1	> 100 µM	–	–	–	–	–	–
COc1ccc2[nH]cc(/C=C(/C)c3ccncc3)c2c1	–	18.7 µM and 14 µM	32.8 µM and 26.4 µM	> 100 µM and 55.9 µM	–	–	95.3	16.4 µM and 13.9 µM	–	–	16.5 µM and > 100 µM	0.551	8.36	58.1	2.7	7.07	–
O=C(Cc1ccc(O)c(O)c1)NCc1c[nH]c2ccccc12	> 100	> 100 µM	> 100 µM	> 100 µM	–	> 100 µM	> 100	> 100 µM	–	> 100	> 100 µM	–	–	–	–	–	–
CC(=O)Nc1nc(NC(C)=O)c2[nH]c(CO)nc2n1	> 100	> 100 µM	> 100 µM	> 100 µM	> 100	> 100 µM	> 100	> 100 µM	> 100	> 100	–	–	–	–	–	–	–
N#C/C(=C1/Sc2c(nc[nH]c2=O)N1c1ccccc1)c1nc2ccccc2[nH]1	–	> 100 µM	> 100 µM	> 100 µM	–	> 100 µM	> 100	> 100 µM	–	> 100	> 100 µM	–	–	–	–	–	–
COc1cc(S(=O)(=O)Nc2nc(-c3ccc(N4C(=O)C(CC(=O)O)SC4c4cccs4)cc3)cs2)ccc1Cl (stereo unspecified)	> 100	39.8 µM	> 100 µM	69.7 µM	> 100	49 µM	> 100	> 100 µM	> 100	> 100	–	–	–	–	–	–	–
CC1CN(C)c2ccccc2N=C1NN (stereo unspecified)	> 100	> 100 µM	> 100 µM	> 100 µM	> 100	> 100 µM	–	> 100 µM	> 100	> 100	> 100 µM	–	–	–	–	–	–
